Reference: ChEMBL document CHEMBL1201862, “PubChem BioAssay data set” (2004)
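In this assay, cells in 96-well plates receive the compound at five concentrations for 48 hours. Endpoints are linearly interpolated between the surrounding concentrations. GI50 marks 50% less growth.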 The source made the active and inactive calls. Cut-off read from the data, not from the text of the source: active = GI50 up to about 1.1 µM and inactive = higher. Where a SMILES comes first, the peptide text is derived from it. The star is where a group is joined. Boc = CC(C)(C)OC(=O)*; Bn = c1ccc(C*)cc1

Legend:
Experiment in all cases: growth of human tumour cells (NCI), 48 h
[1] = tested on: ACHN
[2] = tested on: CCRF-CEM
[3] = tested on: COLO 205
[4] = tested on: EKVX
[5] = tested on: IGROV-1
[6] = tested on: MCF7
[7] = tested on: MDA-MB-231
[8] = tested on: Malme-3M
[9] = tested on: NCI-H460
[10] = tested on: NCI-H522
[11] = tested on: OVCAR-3
[12] = tested on: OVCAR-4
[13] = tested on: PC-3
[14] = tested on: RPMI-8226
[15] = tested on: SK-MEL-2
[16] = tested on: SN12C
[17] = tested on: U-251
[18] = tested on: UO-31
[19] = tested on: HCC 2998

| SMILES | GI50 [1] | GI50 [2] | GI50 [3] | GI50 [4] | GI50 [5] | GI50 [6] | GI50 [7] | GI50 [8] | GI50 [9] | GI50 [10] | GI50 [11] | GI50 [12] | GI50 [13] | GI50 [14] | GI50 [15] | GI50 [16] | GI50 [17] | GI50 [18] | GI50 [19] |
| --- | --- | --- | --- | --- | --- | --- | --- | --- | --- | --- | --- | --- | --- | --- | --- | --- | --- | --- | --- |
| CSc1cccc(NC(=O)OC2CCCCCCCCCCC2)c1 | 27.7 µM (inactive) | 16.4 µM (inactive) | 14.5 µM (inactive) | 19.1 µM (inactive) | 33.4 µM (inactive) | 20.6 µM (inactive) | 23.6 µM (inactive) | 24.8 µM (inactive) | 16.4 µM (inactive) | 13.2 µM (inactive) | 10.5 µM (inactive) | 10.4 µM (inactive) | 31 µM (inactive) | 14.7 µM (inactive) | 18.4 µM (inactive) | 15.5 µM (inactive) | 18.8 µM (inactive) | 7.91 µM (inactive) | – |
| COc1cc2oc(=O)cc(C)c2c(OC)c1OC | > 100 µM (inactive) | > 100 µM (inactive) | > 100 µM (inactive) | 87.9 µM (inactive) | > 100 µM (inactive) | > 100 µM (inactive) | > 100 µM (inactive) | > 100 µM (inactive) | – | – | > 100 µM (inactive) | > 100 µM (inactive) | > 100 µM (inactive) | > 100 µM (inactive) | > 100 µM (inactive) | > 100 µM (inactive) | > 100 µM (inactive) | 38.7 µM (inactive) | – |
| Cn1c(=O)c2c(ncn2CN2CCN(Cn3cnc4c3c(=O)n(C)c(=O)n4C)CC2)n(C)c1=O | 27 µM (inactive) | 21.9 µM (inactive) | 39.4 µM (inactive) | 29.1 µM (inactive) | 78.5 µM (inactive) | 16.9 µM (inactive) | > 100 µM (inactive) | 73.6 µM (inactive) | 19.2 µM (inactive) | 44.7 µM (inactive) | > 100 µM (inactive) | > 100 µM (inactive) | 53.5 µM (inactive) | 22.7 µM (inactive) | > 100 µM (inactive) | 46.9 µM (inactive) | > 100 µM (inactive) | 46.1 µM (inactive) | – |
| Cc1ccsc1/C=N/Nc1nncc2ccccc12 | > 100 µM (inactive) | 53.2 µM (inactive) | > 100 µM (inactive) | > 100 µM (inactive) | 15.9 µM (inactive) | 37 µM (inactive) | > 100 µM (inactive) | – | – | – | > 100 µM (inactive) | > 100 µM (inactive) | 34.3 µM (inactive) | 81.8 µM (inactive) | 14.1 µM (inactive) | > 100 µM (inactive) | 58.3 µM (inactive) | 21.9 µM (inactive) | > 100 µM (inactive) |
| CC(=O)/C=C1/C(=O)C(CC(C)C)=C1CC(C)C | > 100 µM (inactive) | 53.8 µM (inactive) | > 100 µM (inactive) | > 100 µM (inactive) | > 100 µM (inactive) | > 100 µM (inactive) | > 100 µM (inactive) | > 100 µM (inactive) | – | > 100 µM (inactive) | – | > 100 µM (inactive) | > 100 µM (inactive) | – | > 100 µM (inactive) | > 100 µM (inactive) | > 100 µM (inactive) | > 100 µM (inactive) | – |
| CC1(C)CCC2(C(=O)OC3OC(CO)C(O)C(O)C3O)CCC3(CO)C(=CCC4C5(C)CC(O)C(O)C(C)(C(=O)OC6OC(CO)C(O)C(O)C6O)C5CCC43C)C2C1 (stereo not given) | > 100 µM (inactive) | – | > 100 µM (inactive) | > 100 µM (inactive) | > 100 µM (inactive) | > 100 µM (inactive) | > 100 µM (inactive) | > 100 µM (inactive) | > 100 µM (inactive) | > 100 µM (inactive) | > 100 µM (inactive) | > 100 µM (inactive) | > 100 µM (inactive) | – | > 100 µM (inactive) | > 100 µM (inactive) | > 100 µM (inactive) | > 100 µM (inactive) | > 100 µM (inactive) |
| N#Cc1nc(C2=C(Cl)c3ccccc3OC2)[nH]c1C#N | 32.5 µM (inactive) | 11.5 µM (inactive) | – | 31.5 µM (inactive) | 30.1 µM (inactive) | 22.8 µM (inactive) | – | – | 22 µM (inactive) | – | 27.7 µM (inactive) | 53.3 µM (inactive) | 11 µM (inactive) | 24.4 µM (inactive) | – | 27.5 µM (inactive) | 18.4 µM (inactive) | 24 µM (inactive) | 16.3 µM (inactive) |
| O=C(OCC1CCCN2CCCCC12)c1cccnc1 (stereo not given) | > 100 µM (inactive) | > 100 µM (inactive) | > 100 µM (inactive) | > 100 µM (inactive) | – | > 100 µM (inactive) | > 100 µM (inactive) | > 100 µM (inactive) | > 100 µM (inactive) | – | – | > 100 µM (inactive) | > 100 µM (inactive) | > 100 µM (inactive) | > 100 µM (inactive) | > 100 µM (inactive) | > 100 µM (inactive) | > 100 µM (inactive) | > 100 µM (inactive) |
| CC(C)Oc1c(O)c2c3c(oc(=O)n3C=CC2c2ccccc2)c1OC(C)C (stereo not given) | > 10 µM (inactive) | – | 22.1 µM (inactive) | 22.3 µM (inactive) | 21.9 µM (inactive) | 19.6 µM (inactive) | 30.3 µM (inactive) | – | 14.7 µM (inactive) | – | 21.5 µM (inactive) | 24.6 µM (inactive) | 17 µM (inactive) | – | 15.7 µM (inactive) | 36.5 µM (inactive) | 20.8 µM (inactive) | 14.2 µM (inactive) | 19 µM (inactive) |
| O=C(CSc1nc2ccc(I)cc2c(=O)n1Cc1ccccc1)NNC(=S)Nc1ccccc1 | 18.9 µM (inactive) | 6.14 µM (inactive) | 23.1 µM (inactive) | 1.73 µM (inactive) | 2.91 µM (inactive) | 22.5 µM (inactive) | – | – | 5.47 µM (inactive) | 4.98 µM (inactive) | 12.9 µM (inactive) | 6.53 µM (inactive) | 9.68 µM (inactive) | 12.6 µM (inactive) | 18 µM (inactive) | 3.9 µM (inactive) | 6.24 µM (inactive) | – | 43.3 µM (inactive) |
| CN(C)CCCn1cnc2ncccc2c1=O | > 100 µM (inactive) | > 100 µM (inactive) | 55.1 µM (inactive) | > 100 µM (inactive) | > 100 µM (inactive) | – | – | > 100 µM (inactive) | > 100 µM (inactive) | > 100 µM (inactive) | > 100 µM (inactive) | > 100 µM (inactive) | – | – | > 100 µM (inactive) | > 100 µM (inactive) | > 100 µM (inactive) | > 100 µM (inactive) | > 100 µM (inactive) |
| CC(Oc1ccc(OCC2CCCCC2)cc1)C(N)=O (stereo not given) | > 100 µM (inactive) | > 100 µM (inactive) | – | – | – | – | – | > 100 µM (inactive) | > 100 µM (inactive) | 87.9 µM (inactive) | > 100 µM (inactive) | > 100 µM (inactive) | – | – | > 100 µM (inactive) | > 100 µM (inactive) | > 100 µM (inactive) | > 100 µM (inactive) | – |
| COC(=O)C[C@H]1[C@]2(C)C3=C(C)[C@H](c4ccoc4)CC3O[C@@H]2[C@@H]2OC(=O)[C@]3(C)CCC(=O)[C@@]1(C)[C@@H]23 (stereo not given in full) | > 100 µM (inactive) | 19.9 µM (inactive) | 62.8 µM (inactive) | – | 71.3 µM (inactive) | 31.4 µM (inactive) | > 100 µM (inactive) | 40.4 µM (inactive) | > 100 µM (inactive) | 14.5 µM (inactive) | 53 µM (inactive) | 41.3 µM (inactive) | – | 19.1 µM (inactive) | > 100 µM (inactive) | 69.7 µM (inactive) | 60.8 µM (inactive) | 54.5 µM (inactive) | – |
| C[C@]12CC[C@H]3[C@@H](CC[C@]4(O)C[C@@H](O)CC[C@]34/C=N/O)[C@@]1(O)CC[C@@H]2C1=COC(=O)C1 | 0.0404 µM (active) | – | 0.474 µM (active) | 0.1 µM (active) | 0.136 µM (active) | – | 0.589 µM (active) | 0.169 µM (active) | 0.0403 µM (active) | 0.0323 µM (active) | 0.0472 µM (active) | 0.0608 µM (active) | 0.149 µM (active) | 0.258 µM (active) | 0.255 µM (active) | 0.251 µM (active) | 0.212 µM (active) | 0.112 µM (active) | 0.251 µM (active) |
| CCOC(=O)C(Cc1c(C=O)[nH]c2ccccc12)(NC(=O)c1ccccc1)C(=O)OCC | 14.4 µM (inactive) | 6.87 µM (inactive) | 18.8 µM (inactive) | 18.5 µM (inactive) | 20.4 µM (inactive) | – | – | 17.7 µM (inactive) | 24.3 µM (inactive) | – | 13 µM (inactive) | – | – | > 100 µM (inactive) | 16.5 µM (inactive) | 13.2 µM (inactive) | 11.6 µM (inactive) | 16.1 µM (inactive) | 12.2 µM (inactive) |
| COC(=O)C(CC(C)C)NC(=O)C(C)NC(=O)C(Cc1ccc(OCc2ccccc2)cc1)NC(=O)C(COCc1ccccc1)NC(=O)OC(C)(C)C (stereo not given) (Boc-S(Bn)Y(Bn)AL-OMe; configuration not given here) | > 100 µM (inactive) | – | > 100 µM (inactive) | > 100 µM (inactive) | > 100 µM (inactive) | > 100 µM (inactive) | – | > 100 µM (inactive) | > 100 µM (inactive) | > 100 µM (inactive) | > 100 µM (inactive) | 4.3 µM (inactive) | > 100 µM (inactive) | > 100 µM (inactive) | – | > 100 µM (inactive) | > 100 µM (inactive) | > 100 µM (inactive) | – |
| Cc1nc(=O)c2cc(CN(C)c3ccc(C(=O)N[C@@H](CCC(=O)O)C(=O)O)s3)ccc2[nH]1 [RALTITREXED] | 0.0467 µM (active) | – | > 100 µM (inactive) | > 100 µM (inactive) | > 100 µM (inactive) | 8.04 µM (inactive) | > 100 µM (inactive) | 0.303 µM (active) | 0.041 µM (active) | > 100 µM (inactive) | > 100 µM (inactive) | > 100 µM (inactive) | > 100 µM (inactive) | 0.0834 µM (active) | > 100 µM (inactive) | 0.65 µM (active) | 0.546 µM (active) | – | – |
